In patent US20090175969A1, “Formulation for treating obesity and associated metabolic syndrome” (priority 2004, published 2009):

Experiments:
lipase = details: human, three capsules of 120 mg daily; cited from earlier work
pancreatic lipase = biological target: T1, pancreatic lipase (Homo sapiens, UniProt P16233); test: in vitro effect on the activity of pancreatic lipase; type: biochemical; details: concentration of 10 mg, after 45 and 60 minutes, 37° C.
T1 sequence (P16233 17-465): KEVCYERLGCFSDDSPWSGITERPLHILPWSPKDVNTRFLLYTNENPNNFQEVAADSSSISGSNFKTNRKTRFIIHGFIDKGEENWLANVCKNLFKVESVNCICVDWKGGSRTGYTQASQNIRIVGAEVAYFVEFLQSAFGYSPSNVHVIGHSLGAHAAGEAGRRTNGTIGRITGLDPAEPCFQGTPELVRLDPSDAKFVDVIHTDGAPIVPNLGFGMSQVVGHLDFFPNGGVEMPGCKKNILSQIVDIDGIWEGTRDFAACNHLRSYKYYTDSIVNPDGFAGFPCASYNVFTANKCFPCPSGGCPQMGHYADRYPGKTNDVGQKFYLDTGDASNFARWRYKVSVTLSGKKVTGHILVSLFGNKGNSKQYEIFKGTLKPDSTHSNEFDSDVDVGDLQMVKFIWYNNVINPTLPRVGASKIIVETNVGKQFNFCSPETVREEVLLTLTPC
Text: The composition of the formulation of the invention is presented below in the Table 1: […]

For `CCCCCCCCCCC[C@@H](C[C@@H]1OC(=O)[C@H]1CCCCCC)OC(=O)[C@H](CC(C)C)NC=O` (relative stereo) [Xenical®, ([2S-[2a(R*),3b]]N-formyl-L-leucine 1-[(3-hexyl-4-oxo-2-oxetanyl)methyl]dodecyl ester)], the “consumed fat that goes through the digestive tract without decomposition and is not absorbed” value (lipase) is given as 30% and the “inhibition of lipase activity” value (pancreatic lipase) is given as “complete inhibition”.
